Species: Rattus norvegicus
Assay type: toxicity, organism-based, Sprague-Dawley
Conditions: in vivo, po, 24 h, route oral GAVAGE, time 1 day, vehicle 100 % SALINE; for ABSOLUTE BASOPHIL / ABSOLUTE EOSINOPHIL / ABSOLUTE LYMPHOCYTE / ABSOLUTE MONOCYTE / BASOPHIL / EOSINOPHIL / ERYTHROCYTE COUNT / HEMATOCRIT / HEMOGLOBIN / LEUKOCYTE COUNT / LYMPHOCYTE / MEAN CORPUSCULAR HEMOGLOBIN / MEAN CORPUSCULAR HEMOGLOBIN CONCENTRATION / MEAN CORPUSCULAR VOLUME / MONOCYTE / NEUTROPHIL / PLATELET COUNT: tissue Blood
[1] = 0 mg/kg, vehicle control, dose level Control
[2] = 0 mg/kg, vehicle control, tissue Plasma, dose level Control
[3] = 2 mg/kg, tissue Plasma, dose level High

Description: DrugMatrix - Regimen: Single

COc1cccc2c1C(=O)c1c(O)c3c(c(O)c1C2=O)C[C@@](O)(C(C)=O)C[C@@H]3O[C@H]1C[C@H](N)[C@H](O)[C@H](C)O1 [DAUNORUBICIN] showed an ABSOLUTE BASOPHIL [1] of 73.3 cells/µL, an ABSOLUTE EOSINOPHIL [1] of 86.7 cells/µL and an ABSOLUTE LYMPHOCYTE [1] of 8400 cells/µL. The ABSOLUTE MONOCYTE [1] was 350 cells/µL, the BASOPHIL [1] was 0.63% and the EOSINOPHIL [1] was 0.73%. The “ERYTHROCYTE COUNT” value [1] was 6.55 x10E6/uL, the HEMATOCRIT [1] was 42.83% and the HEMOGLOBIN [1] was 13.6 G/DL. The “LEUKOCYTE COUNT” value [1] was 11.33 x10E3/uL, the LYMPHOCYTE [1] was 74.77% and the “MEAN CORPUSCULAR HEMOGLOBIN” value [1] was 20.77 pg. For the same compound, the “MEAN CORPUSCULAR HEMOGLOBIN CONCENTRATION” value [1] was 31.7 G/DL, the “MEAN CORPUSCULAR VOLUME” value [1] was 65.53 fL and the MONOCYTE [1] was 3%. For the same compound, the NEUTROPHIL [1] was 20.2%, the “PLATELET COUNT” value [1] was 1394.33 x10E3/uL and the “ALANINE AMINOTRANSFERASE” value [2] was 34 u/L. The ALBUMIN [2] was 4.03 G/DL, the “ALKALINE PHOSPHATASE” value [2] was 345.33 u/L and the “ASPARTATE AMINOTRANSFERASE” value [2] was 69.67 u/L. The “BLOOD UREA NITROGEN” value [2] was 14.33 mg/dL, the “CARBON DIOXIDE” value [2] was 46 mmol/L and the CHLORIDE [2] was 102.67 MEQ/L. For the same compound, the CHOLESTEROL [2] was 85 mg/dL, the “CREATINE PHOSPHOKINASE” value [2] was 292 u/L and the CREATININE [2] was 0.2 mg/dL. For the same compound, the GLUCOSE [2] was 168 mg/dL, the LIPASE [2] was 13 u/L and the PHOSPHORUS [2] was 11.2 mg/dL. For the same compound, the POTASSIUM [2] was 7.07 MEQ/L, the SODIUM [2] was 144.67 MEQ/L and the “TOTAL BILIRUBIN” value [2] was 0.27 mg/dL. For the same compound, the “TOTAL PROTEIN” value [2] was 6.57 G/DL, the “URIC ACID” value [2] was 0.73 mg/dL and the ABSOLUTE BASOPHIL (2 mg/kg, dose level High) was 30 cells/µL. The ABSOLUTE EOSINOPHIL (2 mg/kg, dose level High) was 60 cells/µL, the ABSOLUTE LYMPHOCYTE (2 mg/kg, dose level High) was 7160 cells/µL and the ABSOLUTE MONOCYTE (2 mg/kg, dose level High) was 260 cells/µL. For the same compound, the BASOPHIL (2 mg/kg, dose level High) was 0.33%, the EOSINOPHIL (2 mg/kg, dose level High) was 0.67% and the “ERYTHROCYTE COUNT” value (2 mg/kg, dose level High) was 6.43 x10E6/uL. The HEMATOCRIT (2 mg/kg, dose level High) was 42.57%, the HEMOGLOBIN (2 mg/kg, dose level High) was 13.5 G/DL and the “LEUKOCYTE COUNT” value (2 mg/kg, dose level High) was 9.23 x10E3/uL. For the same compound, the LYMPHOCYTE (2 mg/kg, dose level High) was 77.03%, the “MEAN CORPUSCULAR HEMOGLOBIN” value (2 mg/kg, dose level High) was 21.03 pg and the “MEAN CORPUSCULAR HEMOGLOBIN CONCENTRATION” value (2 mg/kg, dose level High) was 31.73 G/DL. The “MEAN CORPUSCULAR VOLUME” value (2 mg/kg, dose level High) was 66.3 fL, the MONOCYTE (2 mg/kg, dose level High) was 2.83% and the NEUTROPHIL (2 mg/kg, dose level High) was 18.5%. For the same compound, the “PLATELET COUNT” value (2 mg/kg, dose level High) was 1328.67 x10E3/uL, the “ALANINE AMINOTRANSFERASE” value [3] was 37.33 u/L and the ALBUMIN [3] was 3.93 G/DL. For the same compound, the “ALKALINE PHOSPHATASE” value [3] was 397.67 u/L, the “ASPARTATE AMINOTRANSFERASE” value [3] was 67.67 u/L and the “BLOOD UREA NITROGEN” value [3] was 13.67 mg/dL. For the same compound, the “CARBON DIOXIDE” value [3] was 39.33 mmol/L, the CHLORIDE [3] was 104.67 MEQ/L and the CHOLESTEROL [3] was 84 mg/dL. For the same compound, the “CREATINE PHOSPHOKINASE” value [3] was 230.33 u/L, the CREATININE [3] was 0.27 mg/dL and the GLUCOSE [3] was 179 mg/dL. For the same compound, the “LACTATE DEHYDROGENASE” value [3] was 60.33 u/L, the LIPASE [3] was 9.67 u/L and the PHOSPHORUS [3] was 11.57 mg/dL. For the same compound, the POTASSIUM [3] was 6.13 MEQ/L, the SODIUM [3] was 146 MEQ/L and the “TOTAL BILIRUBIN” value [3] was 0.2 mg/dL. The “TOTAL PROTEIN” value [3] was 6.37 G/DL and the “URIC ACID” value [3] was 1 mg/dL.
